Reference: article PMC7399337, “Biological Properties and Absolute Configuration of Flavanones From Calceolaria thyrsiflora Graham” (Frontiers in Pharmacology, 2020)
Values after ≈ are worked out from the molar mass of the structure shown.

Key:
[1] = tested on: A. tumefaciens; assay: Antibacterial MIC, broth microdilution, phytopathogens; assay type: cell-based; details: Agrobacterium tumefaciens; GN A. tumefaciens; 24 h; tested 12.5 to 1,600 µg/ml; read-out: Minimum inhibitory concentration (MIC)
Protocol: (§1) The minimum inhibitory concentrations (MIC) were determined using the broth microdilution method ([Díaz et al., 2018]). Two-fold serial dilutions were added to the wells of sterile 96-well plates containing inoculated BBL™ Mueller Hinton II Broth medium suspensions of bacterial cells (1.0 x10^5 UFC/ml) of Agrobacterium tumefaciens and Bacillus subtilis. The final concentrations ranged from 12.5 to 1,600 µg/ml. Ethanol (1%) was used as the negative control and chloramphenicol (CALBIOCHEM; U.S. and Canada) was used as the positive control against both bacteria. MICs were determined according to the OD600 obtained in a Thermo Scientific Multiskan GO 96-well plate photometer. […] Assays were done in triplicate.

[2] = tested on: B. subtilis; assay: as above; assay type: cell-based; details: Bacillus subtilis; GP B. subtilis; 24 h; tested 12.5 to 1,600 µg/ml; read-out: Minimum inhibitory concentration (MIC)
Protocol: as §1

O=C(N[C@H](CO)[C@H](O)c1ccc([N+](=O)[O-])cc1)C(Cl)Cl [Chloramphenicol]
MIC [1]: 12.5 µg/mL (≈ 38.7 µM)
MIC [2]: 12.5 µg/mL (≈ 38.7 µM)
